In patent US12391686B2, “Compounds and uses thereof” (Foghorn Therapeutics Inc., priority 2019, dated 2025):

Each compound was assayed against T1, Nanoluciferase-BRD9 fusion protein (3×FLAG-NLuc-BRD9) in SYO-1 cells (Homo sapiens, UniProt Q9H8M2) (assay: SYO1 BRD9 NanoLuc Degradation Assay). Settings: Table 6C; SYO-1 cells expressing 3×FLAG-NLuc-BRD9, 6 hours incubation, 1 μM top dose; read-out: SYO1 BRD9-NanoLuc degradation IC50.
T1 construct: expressed in transfected cells; host or cells: SYO-1
T1 sequence (Q9H8M2 1-597): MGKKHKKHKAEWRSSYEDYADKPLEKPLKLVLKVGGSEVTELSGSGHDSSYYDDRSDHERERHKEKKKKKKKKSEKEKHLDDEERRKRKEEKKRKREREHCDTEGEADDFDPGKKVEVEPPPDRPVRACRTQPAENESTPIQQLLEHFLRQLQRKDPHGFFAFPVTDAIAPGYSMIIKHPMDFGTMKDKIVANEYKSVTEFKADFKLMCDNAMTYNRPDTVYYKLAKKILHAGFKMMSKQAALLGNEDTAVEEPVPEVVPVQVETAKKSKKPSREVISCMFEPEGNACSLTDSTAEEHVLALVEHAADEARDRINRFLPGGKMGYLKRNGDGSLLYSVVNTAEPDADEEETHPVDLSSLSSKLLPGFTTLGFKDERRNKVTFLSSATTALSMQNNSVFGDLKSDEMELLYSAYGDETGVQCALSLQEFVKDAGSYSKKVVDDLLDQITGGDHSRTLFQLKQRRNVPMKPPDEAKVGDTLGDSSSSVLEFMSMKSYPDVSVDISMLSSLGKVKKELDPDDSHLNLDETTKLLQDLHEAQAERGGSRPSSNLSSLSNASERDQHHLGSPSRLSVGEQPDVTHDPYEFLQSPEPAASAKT
Format: cell-based
Outline: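 Stable 3×FLAG-NLuc-BRD9 SYO-1 line, 8000 cells/well, dosed day 1 with 10-point 3-fold dilutions (1 μM final top, duplicates) for 6 h. NanoLuc bioluminescence read with Nano-Glo; % inhibition relative to DMSO (high) and 1 μM reference BRD9 degrader (low) controls.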

| DC50 [µM] | Structure (SMILES) |
| --- | --- |
| < 0.01 | COc1cc2c(-c3cc(OC)c(CN4CCN(CCC5CCN(c6ccc7c(c6)CN(C6CCC(=O)NC6=O)C7=O)CC5)CC4)c(OC)c3)cn(C)c(=O)c2cn1 (centres unmarked) [Compound D224] |
| < 0.01 | COc1cc2c(-c3cc(OC)c(CN4CCN(CCC5CCN(c6ccc7c(c6)C(=O)N(C6CCC(=O)NC6=O)C7)CC5)CC4)c(OC)c3)cn(C)c(=O)c2cn1 (centres unmarked) [Compound D225] |
| < 0.01 | COc1cc(-c2cn(C)c(=O)c3cnc(C4CC4)cc23)cc(OC)c1CN1CCC2(CC1)CN(c1ccc3c(c1)C(=O)N(C1CCC(=O)NC1=O)C3)C2 (centres unmarked) [Compound D226] |
| < 0.01 | COc1cc(-c2cn(C)c(=O)c3cnc(N4CCC4)cc23)cc(OC)c1CN1CCC(CN2CCC3(CN(c4ccc5c(c4)C(=O)N(C4CCC(=O)NC4=O)C5)C3)C(F)(F)C2)CC1 (centres unmarked) [Compound D227] |
| < 0.01 | COc1cc(-c2cn(C)c(=O)c3cnc(C(C)(C)O)cc23)cc(OC)c1CN1CCC(CN2CCC3(CC2)CC(Oc2ccc4c(c2)C(=O)N(C2CCC(=O)NC2=O)C4)C3)CC1 (centres unmarked) [Compound D228] |
| < 0.01 | COc1cc(-c2cn(C)c(=O)c3cnc(C4(C)CC4)cc23)cc(OC)c1CN1CC(Oc2ccc3c(c2)C(=O)N(C2CCC(=O)NC2=O)C3=O)C1 (centres unmarked) [Compound D229] |
| < 0.01 | [2H]C([2H])([2H])n1cc(-c2cc(OC)c(CN3CCN(CCC4CCN(c5ccc6c(c5)CN(C5CCC(=O)NC5=O)C6=O)CC4)CC3)c(OC)c2)c2cc(OC)ncc2c1=O (centres unmarked) [Compound D230] |
| < 0.01 | [2H]C([2H])([2H])n1cc(-c2cc(OC)c(CN3CCN(CCC4CCN(c5ccc6c(c5)C(=O)N(C5CCC(=O)NC5=O)C6)CC4)CC3)c(OC)c2)c2cc(OC)ncc2c1=O (centres unmarked) [Compound D231] |
| < 0.01 | COc1cc(-c2cn(C)c(=O)c3cnc(N4CCC4)cc23)cc(OC)c1CN1CCC(CN2CCC3(CN(c4ccc5c(c4)CN(C4CCC(=O)NC4=O)C5=O)C3)C(F)(F)C2)CC1 (centres unmarked) [Compound D232] |
| < 0.01 | [2H]C([2H])([2H])n1cc(-c2cc(OC)c(CN3CCC4(CC3)CN(c3ccc5c(c3)C(=O)N(C3CCC(=O)NC3=O)C5)C4)c(OC)c2)c2cc(C3CC3)ncc2c1=O (centres unmarked) [Compound D233] |
| < 0.01 | [2H]C([2H])([2H])n1cc(-c2cc(OC)c(CN3CCC4(CC3)CN(c3ccc5c(c3)C(=O)N(C3CCC(=O)NC3=O)C5)C4)c(OC)c2)c2cc(OC)ncc2c1=O (centres unmarked) [Compound D234] |
| < 0.01 | COc1cc2c(-c3cc(OC)c(CN4CCC(c5ccc6c(c5)CN(C5CCC(=O)NC5=O)C6=O)CC4)c(OC)c3)cn(C)c(=O)c2cn1 (centres unmarked) [Compound D235] |
| < 0.01 | COc1cc(-c2cn(C)c(=O)c3cnc(N(C)C)cc23)cc(OC)c1CN1CCC(CN2CCC3(CC2)CN(c2ccc4c(c2)C(=O)N(C2CCC(=O)NC2=O)C4)C3)C(F)(F)C1 (centres unmarked) [Compound D236] |
| < 0.01 | COc1cc(-c2cn(C)c(=O)c3cnc(C4(C)CC4)cc23)cc(OC)c1CN1CCC(CCN2CCN(c3ccc4c(c3)C(=O)N(C3CCC(=O)NC3=O)C4)CC2)CC1 (centres unmarked) [Compound D237] |
| < 0.01 | COc1cc(-c2cn(C)c(=O)c3cnc(C4(C)CC4)cc23)cc(OC)c1CN1CCC(CCN2CCN(c3ccc4c(c3)CN(C3CCC(=O)NC3=O)C4=O)CC2)CC1 (centres unmarked) [Compound D238] |
| < 0.01 | [2H]C([2H])([2H])n1cc(-c2cc(OC)c(CN3CC(Oc4ccc5c(c4)C(=O)N(C4CCC(=O)NC4=O)C5)C3)c(OC)c2)c2cc(OC)ncc2c1=O (centres unmarked) [Compound D239] |
| < 0.01 | [2H]C([2H])([2H])n1cc(-c2cc(OC)c(CN3CCN(CCC4CCN(c5ccc6c(c5)C(=O)N(C5CCC(=O)NC5=O)C6)CC4)CC3)c(OC)c2)c2cc(N(C)C)ncc2c1=O (centres unmarked) [Compound D240] |
| < 0.01 | COc1cc(-c2cn(C)c(=O)c3cnc(N4CC(F)(F)C4)cc23)cc(OC)c1CN1CCC(CCN2CCC3(CC2)CN(c2ccc4c(c2)C(=O)N(C2CCC(=O)NC2=O)C4)C3)CC1 (centres unmarked) [Compound D241] |
| < 0.01 | [2H]C([2H])([2H])n1cc(-c2cc(OC)c(CN3CC(Oc4ccc5c(c4)CN(C4CCC(=O)NC4=O)C5=O)C3)c(OC)c2)c2cc(OC)ncc2c1=O (centres unmarked) [Compound D242] |
| < 0.01 | COc1cc(-c2cn(C)c(=O)c3cnc(C4CC4)cc23)cc(OC)c1CN1CCC(C(N2CCC3(CC2)CC(Oc2ccc4c(c2)C(=O)N(C2CCC(=O)NC2=O)C4)C3)C(F)(F)F)CC1 (centres unmarked) [Compound D243] |
| < 0.01 | [2H]C1CC(N2Cc3ccc(N4CCC(CCN5CCN(Cc6c(OC)cc(-c7cn(C)c(=O)c8cnc(N9CCC9)cc78)cc6OC)CC5)CC4)cc3C2=O)C(=O)NC1=O (centres unmarked) [Compound D244] |
| < 0.01 | [2H]C1CC(N2Cc3cc(N4CCC(CCN5CCN(Cc6c(OC)cc(-c7cn(C)c(=O)c8cnc(N9CCC9)cc78)cc6OC)CC5)CC4)ccc3C2=O)C(=O)NC1=O (centres unmarked) [Compound D245] |

| DC50 [µM] | Structure (SMILES) |
| --- | --- |
| < 0.01 | [2H]C([2H])([2H])n1cc(-c2cc(OC)c(CN3CC(Oc4ccc5c(c4)C(=O)N(C4CCC(=O)NC4=O)C5)C3)c(OC)c2)c2cc(C3CC3)ncc2c1=O (centres unmarked) [Compound D247] |
| < 0.01 | COc1cc(-c2cn(C)c(=O)c3cnc(N4CC(F)(F)C4)cc23)cc(OC)c1CN1CCN(CCC2CCN(c3ccc4c(c3)CN(C3CCC(=O)NC3=O)C4=O)CC2)CC1 (centres unmarked) [Compound D248] |
| 0.1 to 1 | COc1cc(-c2cn(C)c(=O)c3cnc(N(C)C)cc23)cc(OC)c1CN1CC2(CC(N3CCN(C4CCC(=O)NC4=O)C(=O)C3)C2)C1 (centres unmarked) [Compound D249] |
| 0.1 to 1 | COc1cc(-c2cn(C)c(=O)c3cnc(N(C)C)cc23)cc(OC)c1CN1CCC(N2CCN(C3CCC(=O)NC3=O)C(=O)C2)C1 (centres unmarked) [Compound D250] |
| ≥ 1 | COc1cc(-c2cn(C)c(=O)c3cnc(N(C)C)cc23)cc(OC)c1CN1CCC2(CC1)CC(N1CCN(C3CCC(=O)NC3=O)C(=O)C1)C2 (centres unmarked) [Compound D251] |
| 0.01 to 0.1 | COc1cc(-c2cn(C)c(=O)c3cnc(N(C)C)cc23)cc(OC)c1CN1CC2(CCC(N3CCN(C4CCC(=O)NC4=O)C(=O)C3)CC2)C1 (centres unmarked) [Compound D252] |
| ≥ 1 | COc1cc(-c2cn(C)c(=O)c3cnc(N(C)C)cc23)cc(OC)c1CN1CCC(N2CCN(C3CCC(=O)NC3=O)C(=O)C2)CC1 (centres unmarked) [Compound D253] |
| < 0.01 | [2H]C([2H])([2H])n1cc(-c2cc(OC)c(CN3[C@H](C)CN(c4ccc5c(c4)C(=O)N(C4CCC(=O)NC4=O)C5)C[C@H]3C)c(OC)c2)c2cc(OC)ncc2c1=O (some centres unmarked) [Compound D254] |
| < 0.01 | COc1cc(-c2cn(C)c(=O)c3cnc(N(C)C)cc23)cc(OC)c1CN1CCN(c2ccc3c(c2)C(=O)N(C2CCC(=O)NC2=O)C3)CC1(C)C (centres unmarked) [Compound D255] |
| < 0.01 | COc1cc(-c2cn(C)c(=O)c3cnc(N4CCC4)cc23)cc(OC)c1CN1CC(N(C)c2ccc3c(c2)C(=O)N(C2CCC(=O)NC2=O)C3)C1 (centres unmarked) [Compound D256] |
| < 0.01 | COc1cc(-c2cn(C)c(=O)c3cnc(N(C)C)cc23)cc(OC)c1C1CN(c2ccc3c(c2)C(=O)N(C2CCC(=O)NC2=O)C3)C1 (centres unmarked) [Compound D257] |
| < 0.01 | COc1cc2c(-c3cc(OC)c(CN4CCN(CCC5CCN(c6ccc7c(c6)C(=O)N(C6CCC(=O)NC6=O)C7)CC5)CC45CCC5)c(OC)c3)cn(C)c(=O)c2cn1 (centres unmarked) [Compound D258] |
| ≥ 1 | COc1cc(-c2cn(C)c(=O)c3cnc(N4CCC4)cc23)cc(OC)c1CN1CC(CN2CCC3(CC2)CN(c2ccc4c(c2)C(=O)N(C2CCC(=O)N(C)C2=O)C4)C3)C1 (centres unmarked) [Compound D259] |
| < 0.01 | COc1cc2c(-c3cc(OC)c(CN4CCN(c5ccc6c(c5)C(=O)N(C5CCC(=O)NC5=O)C6)CC4(C)C)c(OC)c3)cn(C)c(=O)c2cn1 (centres unmarked) [Compound D260] |
| ≥ 1 | COc1cc(-c2cn(C)c(=O)c3cnc(N4CC(F)(F)C4)cc23)cc(OC)c1CN1CCC(CN2CCC3(CC2)CN(c2ccc4c(c2)C(=O)N(C2CCC(=O)N(C)C2=O)C4)C3)CC1 (centres unmarked) [Compound D261] |
| < 0.01 | CN(C)c1cc2c(-c3ccc(N(C)C4CCN(c5ccc6c(c5)C(=O)N(C5CCC(=O)NC5=O)C6)CC4)cc3)cn(C)c(=O)c2cn1 (centres unmarked) [Compound D262] |
| < 0.01 | COc1cc(-c2cn(C)c(=O)c3cnc(C4CC4)cc23)cc(OC)c1CN1CC(C#Cc2ccc3c(c2)C(=O)N(C2CCC(=O)NC2=O)C3)C1 (centres unmarked) [Compound D263] |
| < 0.01 | CCc1cc(-c2cn(C)c(=O)c3cnc(N4CCC4)cc23)cc(OC)c1CN1CCC2(CC1)CN(c1ccc3c(c1)C(=O)N(C1CCC(=O)NC1=O)C3)C2 (centres unmarked) [Compound D264] |
| < 0.01 | COc1cc(-c2cn(C)c(=O)c3cnc(N(C)C)cc23)cc(OC)c1C1CCN(c2ccc3c(c2)C(=O)N(C2CCC(=O)NC2=O)C3)CC1 (centres unmarked) [Compound D265] |
| < 0.01 | COc1cc(-c2cn(C)c(=O)c3cnc(N(C)C)cc23)cc(OC)c1CN1CC(C#Cc2ccc3c(c2)C(=O)N(C2CCC(=O)NC2=O)C3)C1 (centres unmarked) [Compound D267] |
| < 0.01 | COc1cc(-c2cn(C)c(=O)c3cnc(N(C)C)cc23)cc(OC)c1CN1CC(N(C)c2ccc3c(c2)C(=O)N(C2CCC(=O)NC2=O)C3=O)C1 (centres unmarked) [Compound D268] |
| < 0.01 | COc1cc(-c2cn(C)c(=O)c3cnc(C4CC4)cc23)cc(OC)c1CN1CCC(C#Cc2ccc3c(c2)C(=O)N(C2CCC(=O)NC2=O)C3)CC1 (centres unmarked) [Compound D269] |
